For the test, the target named is T1, DCAF1 WD40 domain (residues 1077-1390) (Homo sapiens, UniProt Q9Y4B6).
T1 construct: DCAF1 WD40 domain (residues 1077-1390)
T1 sequence (Q9Y4B6 1077-1390): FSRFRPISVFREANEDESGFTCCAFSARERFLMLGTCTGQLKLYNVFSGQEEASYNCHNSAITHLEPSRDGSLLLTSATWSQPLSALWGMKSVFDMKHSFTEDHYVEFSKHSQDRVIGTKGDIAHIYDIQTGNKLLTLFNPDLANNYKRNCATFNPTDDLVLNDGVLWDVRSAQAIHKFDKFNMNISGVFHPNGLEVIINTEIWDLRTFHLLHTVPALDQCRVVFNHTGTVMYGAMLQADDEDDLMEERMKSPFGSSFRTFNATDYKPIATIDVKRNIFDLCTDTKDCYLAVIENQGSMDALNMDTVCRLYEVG
As to the kind of experiment: DCAF1 binding assay by SPR (Biacore 8K+), DCAF1-3 KD. The note with it: 25 °C, read-out: DCAF1-3 SPR (KD).
What is called Kd is a measure of binding affinity in units of concentration. As to `Cc1cccc([C@H](CC(N)=O)NC(=O)c2cn[nH]c2-c2ccccc2F)c1` [I-108], the Kd is < 10 µM.
With `Fc1cccc(N2CCC[C@@H](Nc3cc(N4C[C@H]5C[C@@H]4CO5)ncn3)C2)c1` [I-310], the equilibrium dissociation constant (Kd) was > 200 µM.
The same measure for `NC(=O)C[C@H](NC(=O)c1cnn(CC2CCCCC2)c1-c1ccccc1F)c1cccc(Cl)c1` [I-165]: > 200 µM; for `CN(CCN)C(=O)C[C@H](NC(=O)c1cn[nH]c1-c1ccccc1F)c1cccc(Cl)c1` [I-807]: < 10 µM.
As to `NC(=O)C[C@H](NC(=O)c1c[nH]nc1-c1ccc2[nH]cnc2c1)c1cccc(Cl)c1` [I-240], the Kd was > 200 µM.
As to `NC(=O)C[C@H](NC(=O)c1cn[nH]c1-c1c(F)cccc1C1CC1)c1cccc(Cl)c1` [I-590], the Kd is < 10 µM.
For `Fc1cccc(N2CCC[C@H](Nc3cc(N4CCOCC4)ccn3)C2)c1` [I-499], the Kd is 10 to 100 µM.
`C=CC(=O)N[C@H]1CC[C@H](c2n[nH]cc2C(=O)N[C@@H](CC(N)=O)c2cccc(Cl)c2)CC1` [I-482]: the Kd was > 200 µM.
The same measure for `Cn1ncc(C(=O)N[C@@H](CC(N)=O)c2cccc(Cl)c2)c1-c1ccccc1F` [I-172]: > 200 µM; for `Fc1cccc(N2CCC[C@@H](Nc3cc(N4C5CCCC4CC5)ccn3)C2)c1` [I-617]: < 10 µM; for `COCCC(=O)c1c(-c2c(F)ccc(F)c2C)c(C(=O)N[C@@H](CC(N)=O)c2cccc(Cl)c2)cn1C` [I-973]: < 10 µM.
Take `c1ccc(N2CCC[C@H]3[C@@H]2CCN3c2cc(N3CC4CC(C4)C3)ccn2)cc1` [I-710]: the Kd was in the range of 10 to 100 µM.
Regarding `OC[C@@H]1CCN(c2cccc(F)c2)C[C@@H]1Nc1cc(N2CCCCC2)ccn1` [I-988], the dissociation constant Kd lay in the range of 100 to 200 µM.
Take `O=c1[nH]cc(C2CCOCC2)cc1N[C@@H]1CCCN(c2cccc(F)c2)C1` [I-646]: the Kd is 10 to 100 µM.
`NC(=O)Cc1ccc(F)c(-c2[nH]ncc2C(=O)N[C@@H](CC(N)=O)c2cccc(Cl)c2)c1` [I-521]: the dissociation constant Kd was in the range of 10 to 100 µM.
Take `OCCN(c1nc(N2CCOCC2)c[nH]1)[C@H]1CCCN(c2cccc(F)c2)C1` [I-372]: the Kd was > 200 µM.
In the case of `Cc1sc2c(c1C)C(c1ccc(Cl)cc1)=N[C@@H](CC(=O)NCCOCCOCCOCCOCCOCCOCCOCCn1cc(C(=O)N[C@@H](CC(N)=O)c3cccc(Cl)c3)c(-c3ccccc3F)n1)c1nnc(C)n1-2` [I-888], the Kd was > 200 µM.
As to `Cc1c(F)ccc(F)c1-c1c(C(=O)N[C@@H](CC(=O)N2CCNCC2)c2cccc(Cl)c2)c[nH]c1C#N` [I-876], the Kd was < 10 µM.
Consider `c1cc(N2CCOCC2)cc(N[C@@H]2CCCN(c3ccc(OCCN4CCCC4)nc3)C2)n1` [I-677], for which the Kd fell in the range of 10 to 100 µM.
As to `Fc1cccc(N2CCC[C@@H](N(c3cccnc3)c3cc(N4CCOCC4)ccn3)C2)c1` [I-306], the Kd is > 200 µM.
Turning to `Oc1ccc(N2CCOCC2)cc1N[C@@H]1CCCN(c2cccc(F)c2)C1` [I-325], the Kd is > 200 µM.
As to `C=CC(=O)N1CCC(c2n[nH]cc2C(=O)N[C@@H](CC(N)=O)c2cccc(Cl)c2)C1` (stereo partly drawn) [I-453], the Kd is > 200 µM.
For the compound `Fc1cccc(N2CCC[C@@H]3[C@H]2CCN3c2cc(N3CCOCC3)ccn2)c1` [I-189], the Kd was in the range of 10 to 100 µM.
Consider `COCCN1CCC(c2ccnc(N[C@@H]3CCCN(c4cccc(F)c4)C3)c2)CC1` [I-99], for which the Kd is 10 to 100 µM.
Turning to `c1cc2ccc(N3CCC[C@@H](Nc4cncc(N5CCOCC5)c4)C3)cc2cn1` [I-366], the Kd was < 10 µM.
Regarding `NC(=O)C[C@H](NC(=O)c1cc[nH]c1-c1ccccc1F)c1cccc(Cl)c1` [I-89], the dissociation constant (Kd) fell in the range of 10 to 100 µM.
In the case of `Cc1c(F)ccc(F)c1-c1[nH]ncc1C(=O)N[C@@H](CC(=O)N1CC(N(C)C)C1)c1cccc(Cl)c1` [I-878], the Kd was < 10 µM.
For the compound `Cc1cccc(C)c1-c1[nH]ncc1C(=O)N[C@@H](CC(N)=O)c1cccc(Cl)c1` [I-595], the Kd is < 10 µM.
`C=CC(=O)NC1CCN(c2ccnc(N[C@@H]3CCCN(c4cccc(F)c4)C3)c2)CC1` [I-519]: the Kd fell in the range of 10 to 100 µM.
As to `NC(=O)CCc1cccc(N2CCC[C@@H](Nc3cc(N4CCOCC4)ccn3)C2)c1` [I-777], the Kd lay within 10 to 100 µM.

For the origin of these results see patent publication US20260373266A1, “PROTEIN DEGRADERS AND USES THEREOF” (KYMERA THERAPEUTICS, INC., priority 2022, published 2026).
